≈ marks a conversion by molar mass, not a printed value. Calls of active or inactive are those of the source. The rule behind the calls is not given here.
Key:
EC9706 [1] = experiment: Antiproliferative activity against human EC9706 cells after 48 hrs by CCK-8 assay; assay type: functional, cell-based; conditions: for IC50: EC9706, 48 h
EC9706 [2] = experiment: Antiproliferative activity against human EC9706 cells at 150 ug/mL after 48 hrs by CCK-8 assay; assay type: functional, cell-based
EC9706 [3] = experiment: Antiproliferative activity against human EC9706 cells at >= 600 ug/mL after 48 hrs by CCK-8 assay relative to control; assay type: functional

## Cc1ccc(S(=O)(=O)Nc2cccc3c2CN(C2CCC(=O)NC2=O)C3=O)cc1 (stereo unspecified)
EC9706 [1]
  Activity: Dose-dependent effect
  IC50: 225 µg/mL (≈ 545 µM)
EC9706 [2]
  Activity: Active
EC9706 [3]
  Activity: 100%

## Cc1ccc(C(=O)Nc2cccc3c2CN(C2CCC(=O)NC2=O)C3=O)cc1 (stereo unspecified)
EC9706 [1]
  Activity: Dose-dependent effect
  IC50: 262 µg/mL (≈ 694 µM)
EC9706 [2]
  Activity: Active
EC9706 [3]
  Activity: 100%

## Cc1ccc(CNc2cccc3c2CN(C2CCC(=O)NC2=O)C3=O)cc1 (stereo unspecified)
EC9706 [1]
  Activity: Dose-dependent effect
  IC50: 310 µg/mL (≈ 852 µM)
EC9706 [2]
  Activity: Active
EC9706 [3]
  Activity: 100%

## Nc1cccc2c1CN(C1CCC(=O)NC1=O)C2=O (stereo unspecified) [LENALIDOMIDE]
EC9706 [1]
  Activity: Dose-dependent effect
  IC50: 340 µg/mL (≈ 1310 µM)
EC9706 [2]
  Activity: Active
EC9706 [3]
  Activity: 100%
